The text below walks through data of doi:10.1101/2025.07.21.666047v1 (biorxiv, 2025).

Test [1] concerns the target CD28:B7.1 (immobilized CD28 and biotinylated B7.1) (Homo sapiens, UniProt P10747). The experiment in a line: competitive ELISA, chemiluminescent. The test is classed as binding. A general note: An ELISA detects its analyte on a solid surface through an enzyme-linked reagent.
Test [2] has as its target recombinant human CD28 protein (extracellular domain, His-tagged) (Homo sapiens, UniProt P10747). Put plainly: spectral shift. It counts as binding.

Chain of recombinant human CD28 protein (extracellular domain, His-tagged) (P10747 19-152): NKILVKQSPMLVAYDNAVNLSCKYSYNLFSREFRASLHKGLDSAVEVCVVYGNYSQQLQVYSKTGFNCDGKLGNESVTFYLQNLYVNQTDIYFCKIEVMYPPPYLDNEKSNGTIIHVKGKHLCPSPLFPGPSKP
Chain of CD28:B7.1 (immobilized CD28 and biotinylated B7.1) (P10747 19-152 limits assumed): as the sequence (P10747 19-152) above

What is called IC50 is the concentration that inhibits the measured activity by half. High values mean lower potency, low ones higher potency. As usually defined, the Kd is the free concentration of one partner at which half of the binding sites on the other are occupied at equilibrium, for simple one-to-one binding. In the case of `NC(=O)c1ccc(N2CCN(C(=O)c3ncc4n3CCCC4)CC2)cc1` [Z2770993038], the IC50 in test [1] worked out at 32.9 ± 5.74 µM. Besides, the dissociation constant (Kd) in test [2] was found to be 43.3 ± 16.4 µM.

As to `COc1ccc(C2CC(C)N(CC(=O)NCC(F)(F)F)C2)cc1` (centres unmarked) [Z3889890124], the Kd in test [2] worked out at 49.5 ± 15.3 µM.

Consider `CC(C)OC1CCCN(C(=O)c2ccc(-c3nn[nH]n3)s2)C1` (centres unmarked) [Z4390463985], for which, in test [1], the IC50 came to 56.3 ± 11.2 µM. Besides, the dissociation constant (Kd) in test [2] was 45.8 ± 12.1 µM.
